Biological target: Aβ42 (Homo sapiens, UniProt P05067)
Experiment: Th-T (thioflavin-T) assay of Aβ42 aggregation
Assay type: biochemical
Details: for Th-T assay plate reading, mean of three wells (Supplementary Fig. 47): source data, Ab alone and No Ab as controls

Aβ42, sequence (P05067 672-713): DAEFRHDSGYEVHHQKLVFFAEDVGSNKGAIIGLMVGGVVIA

Th-T fluorescence, mean of three wells (Aβ42 aggregation time course, reading M117): 2.942 | Th-T fluorescence, mean of three wells (Aβ42 aggregation time course, reading M118): 2.9616 | Th-T fluorescence, mean of three wells (Aβ42 aggregation time course, reading M119): 2.929 | Th-T fluorescence, mean of three wells (Aβ42 aggregation time course, reading M120): 2.963 | Th-T fluorescence, mean of three wells (Aβ42 aggregation time course, reading M121): 2.95 | Th-T fluorescence, mean of three wells (Aβ42 aggregation time course, reading M122): 2.943 | Th-T fluorescence, mean of three wells (Aβ42 aggregation time course, reading M123): 2.95 | Th-T fluorescence, mean of three wells (Aβ42 aggregation time course, reading M124): 2.945 | Th-T fluorescence, mean of three wells (Aβ42 aggregation time course, reading M125): 2.938 | Th-T fluorescence, mean of three wells (Aβ42 aggregation time course, reading M126): 2.934 | Th-T fluorescence, mean of three wells (Aβ42 aggregation time course, reading M127): 2.935 | Th-T fluorescence, mean of three wells (Aβ42 aggregation time course, reading M128): 2.947 | Th-T fluorescence, mean of three wells (Aβ42 aggregation time course, reading M129): 2.9294 | Th-T fluorescence, mean of three wells (Aβ42 aggregation time course, reading M130): 2.914 | Th-T fluorescence, mean of three wells (Aβ42 aggregation time course, reading M131): 2.934 | Th-T fluorescence, mean of three wells (Aβ42 aggregation time course, reading M132): 2.934 | Th-T fluorescence, mean of three wells (Aβ42 aggregation time course, reading M133): 2.945 | Th-T fluorescence, mean of three wells (Aβ42 aggregation time course, reading M134): 2.942 | Th-T fluorescence, mean of three wells (Aβ42 aggregation time course, reading M135): 2.931 | Th-T fluorescence, mean of three wells (Aβ42 aggregation time course, reading M136): 2.912 | Th-T fluorescence, mean of three wells (Supplementary Fig. 47, reading M137): 2.914 | Th-T fluorescence, mean of three wells (Supplementary Fig. 47, reading M138): 2.931 | Th-T fluorescence, mean of three wells (Supplementary Fig. 47, reading M139): 2.919 | Th-T fluorescence, mean of three wells (Supplementary Fig. 47, reading M140): 2.936 | Th-T fluorescence, mean of three wells (Supplementary Fig. 47, reading M141): 2.944 | Th-T fluorescence, mean of three wells (Supplementary Fig. 47, reading M142): 2.9414 | Th-T fluorescence, mean of three wells (Supplementary Fig. 47, reading M143): 2.941 | Th-T fluorescence, mean of three wells (Supplementary Fig. 47, reading M144): 2.932 | Th-T fluorescence, mean of three wells (Supplementary Fig. 47, reading M145): 2.925 | Th-T fluorescence, mean of three wells (Supplementary Fig. 47 source data, measurement M37 of time course): 2.747 | Th-T fluorescence, mean of three wells (Supplementary Fig. 47 source data, measurement M38 of time course): 2.734 | Th-T fluorescence, mean of three wells (Supplementary Fig. 47 source data, measurement M39 of time course): 2.741 | Th-T fluorescence, mean of three wells (Supplementary Fig. 47 source data, measurement M40 of time course): 2.757 | Th-T fluorescence, mean of three wells (Supplementary Fig. 47 source data, measurement M41 of time course): 2.789 | Th-T fluorescence, mean of three wells (Supplementary Fig. 47 source data, measurement M42 of time course): 2.791 | Th-T fluorescence, mean of three wells (Supplementary Fig. 47 source data, measurement M43 of time course): 2.8204 | Th-T fluorescence, mean of three wells (Supplementary Fig. 47 source data, measurement M44 of time course): 2.818 | Th-T fluorescence, mean of three wells (Supplementary Fig. 47 source data, measurement M45 of time course): 2.833 | Th-T fluorescence, mean of three wells (Supplementary Fig. 47 source data, measurement M46 of time course): 2.86 | Th-T fluorescence, mean of three wells (Supplementary Fig. 47 source data, measurement M47 of time course): 2.867 | Th-T fluorescence, mean of three wells (Supplementary Fig. 47 source data, measurement M48 of time course): 2.874 | Th-T fluorescence, mean of three wells (Supplementary Fig. 47 source data, measurement M49 of time course): 2.883 | Th-T fluorescence, mean of three wells (Supplementary Fig. 47 source data, measurement M50 of time course): 2.863 | Th-T fluorescence, mean of three wells (Supplementary Fig. 47 source data, measurement M51 of time course): 2.8662 | Th-T fluorescence, mean of three wells (Supplementary Fig. 47 source data, measurement M52 of time course): 2.876 | Th-T fluorescence, mean of three wells (Supplementary Fig. 47 source data, measurement M53 of time course): 2.889 | Th-T fluorescence, mean of three wells (Supplementary Fig. 47 source data, measurement M54 of time course): 2.875 | Th-T fluorescence, mean of three wells (Supplementary Fig. 47 source data, measurement M55 of time course): 2.914 | Th-T fluorescence, mean of three wells (Supplementary Fig. 47 source data, measurement M56 of time course): 2.914 | Th-T assay plate reading, mean of three wells (Supplementary Fig. 47) (measurement M1): 0.5144 | Th-T assay plate reading, mean of three wells (Supplementary Fig. 47) (measurement M2): 0.4337 | Th-T assay plate reading, mean of three wells (Supplementary Fig. 47) (measurement M3): 0.4376 | Th-T assay plate reading, mean of three wells (Supplementary Fig. 47) (measurement M4): 0.4602 | Th-T assay plate reading, mean of three wells (Supplementary Fig. 47) (measurement M5): 0.5047 | Th-T assay plate reading, mean of three wells (Supplementary Fig. 47) (measurement M6): 0.5652 | Th-T assay plate reading, mean of three wells (Supplementary Fig. 47) (measurement M7): 0.6146 | Th-T assay plate reading, mean of three wells (Supplementary Fig. 47) (measurement M8): 0.6765 | Th-T assay plate reading, mean of three wells (Supplementary Fig. 47) (measurement M9): 0.8275 | Th-T assay plate reading, mean of three wells (Supplementary Fig. 47) (measurement M10): 1.067 | Th-T assay plate reading, mean of three wells (Supplementary Fig. 47) (measurement M11): 1.395 | Th-T assay plate reading, mean of three wells (Supplementary Fig. 47) (measurement M12): 1.75 | Th-T assay plate reading, mean of three wells (Supplementary Fig. 47) (measurement M13): 2.113 | Th-T assay plate reading, mean of three wells (Supplementary Fig. 47) (measurement M14): 2.291 | Th-T assay plate reading, mean of three wells (Supplementary Fig. 47) (measurement M15): 2.38 | Th-T assay plate reading, mean of three wells (Supplementary Fig. 47) (measurement M16): 2.421 | Th-T fluorescence, mean of three wells (reading M17, Supplementary Fig. 47 source data): 2.473 | Th-T fluorescence, mean of three wells (reading M18, Supplementary Fig. 47 source data): 2.4977 | Th-T fluorescence, mean of three wells (reading M19, Supplementary Fig. 47 source data): 2.533 | Th-T fluorescence, mean of three wells (reading M20, Supplementary Fig. 47 source data): 2.556 | Th-T fluorescence, mean of three wells (reading M21, Supplementary Fig. 47 source data): 2.585 | Th-T fluorescence, mean of three wells (reading M22, Supplementary Fig. 47 source data): 2.595 | Th-T fluorescence, mean of three wells (reading M23, Supplementary Fig. 47 source data): 2.641 | Th-T fluorescence, mean of three wells (reading M24, Supplementary Fig. 47 source data): 2.62 | Th-T fluorescence, mean of three wells (reading M25, Supplementary Fig. 47 source data): 2.6309 | Th-T fluorescence, mean of three wells (reading M26, Supplementary Fig. 47 source data): 2.664 | Th-T fluorescence, mean of three wells (reading M27, Supplementary Fig. 47 source data): 2.655 | Th-T fluorescence, mean of three wells (reading M28, Supplementary Fig. 47 source data): 2.667 | Th-T fluorescence, mean of three wells (reading M29, Supplementary Fig. 47 source data): 2.665 | Th-T fluorescence, mean of three wells (reading M30, Supplementary Fig. 47 source data): 2.687 | Th-T fluorescence, mean of three wells (reading M31, Supplementary Fig. 47 source data): 2.687 | Th-T fluorescence, mean of three wells (reading M32, Supplementary Fig. 47 source data): 2.686 | Th-T fluorescence, mean of three wells (reading M33, Supplementary Fig. 47 source data): 2.738 | Th-T fluorescence, mean of three wells (reading M34, Supplementary Fig. 47 source data): 2.752 | Th-T fluorescence, mean of three wells (reading M35, Supplementary Fig. 47 source data): 2.742 | Th-T fluorescence, mean of three wells (reading M36, Supplementary Fig. 47 source data): 2.736 | Th-T fluorescence, mean of three wells (time course, reading M57): 2.932 | Th-T fluorescence, mean of three wells (time course, reading M58): 2.915 | Th-T fluorescence, mean of three wells (time course, reading M59): 2.925 | Th-T fluorescence, mean of three wells (time course, reading M60): 2.927 | Th-T fluorescence, mean of three wells (time course, reading M61): 2.927 | Th-T fluorescence, mean of three wells (time course, reading M62): 2.927 | Th-T fluorescence, mean of three wells (time course, reading M63): 2.935 | Th-T fluorescence, mean of three wells (time course, reading M64): 2.936 | Th-T fluorescence, mean of three wells (time course, reading M65): 2.95 | Th-T fluorescence, mean of three wells (time course, reading M66): 2.938 | Th-T fluorescence, mean of three wells (time course, reading M67): 2.956 | Th-T fluorescence, mean of three wells (time-course reading M97, Supplementary Fig. 47 source data): 2.938 | Th-T fluorescence, mean of three wells (time-course reading M98, Supplementary Fig. 47 source data): 2.952 | Th-T fluorescence, mean of three wells (time-course reading M99, Supplementary Fig. 47 source data): 2.942 | Th-T fluorescence, mean of three wells (time-course reading M100, Supplementary Fig. 47 source data): 2.953 | Th-T fluorescence, mean of three wells (time-course reading M101, Supplementary Fig. 47 source data): 2.966 | Th-T fluorescence, mean of three wells (time-course reading M102, Supplementary Fig. 47 source data): 2.943 | Th-T fluorescence, mean of three wells (time-course reading M103, Supplementary Fig. 47 source data): 2.949 | Th-T fluorescence, mean of three wells (time-course reading M104, Supplementary Fig. 47 source data): 2.951 | Th-T fluorescence, mean of three wells (time-course reading M105, Supplementary Fig. 47 source data): 2.946 | Th-T fluorescence, mean of three wells (time-course reading M106, Supplementary Fig. 47 source data): 2.949 | Th-T fluorescence, mean of three wells (time-course reading M107, Supplementary Fig. 47 source data): 2.931 | Th-T fluorescence, mean of three wells (time-course reading M108, Supplementary Fig. 47 source data): 2.953 | Th-T fluorescence, mean of three wells (time-course reading M109, Supplementary Fig. 47 source data): 2.942 | Th-T fluorescence, mean of three wells (time-course reading M110, Supplementary Fig. 47 source data): 2.939 | Th-T fluorescence, mean of three wells (time-course reading M111, Supplementary Fig. 47 source data): 2.961 | Th-T fluorescence, mean of three wells (time-course reading M112, Supplementary Fig. 47 source data): 2.955 | Th-T fluorescence, mean of three wells (time-course reading M113, Supplementary Fig. 47 source data): 2.9565 | Th-T fluorescence, mean of three wells (time-course reading M114, Supplementary Fig. 47 source data): 2.9516 | Th-T fluorescence, mean of three wells (time-course reading M115, Supplementary Fig. 47 source data): 2.943 | Th-T fluorescence, mean of three wells (time-course reading M116, Supplementary Fig. 47 source data): 2.94
Compound: CC(C)=CCC/C(C)=C/CC/C(C)=C/CC/C(C)=C/Cc1c(O)c(C)c(C)oc1=O [Compound 2]
